Consider one molecule from patent publication US20200157144A1, “ANTIMICROBIAL PEPTIDOMIMETICS” (priority 2017, published 2020).

Assay [1] has as its system Enterococcus faecalis ATCC 51299. Kind of assay: microbe, parasite or virus in culture. It is filed as cell-based. The settings on record: ATCC 51299. As for the experimental part:
(§1) The antibacterial potency of Compound 34 was measured using the in vitro broth microdilution assay under assay conditions described by the Clinical and Laboratory Standards Institute. […] The test substance was dissolved in 100% DMSO (unless stated below), suspended completely by sonication or vortexing, diluted by 2-fold serial titrations in the same vehicle, for a total of 10 test concentrations (final concentrations: 100, 50, 25, 12.5, 6.25, 3.125, 1.56, 0.78, 0.39, 0.2 μM). A 4 μL aliquot of each dilution was added to 196 μL of broth medium seeded with the organism suspension in wells of a 96 well plate (bacterial count: 2-8×10^5 colony forming units/mL final). The final volume was 200 μL in each well and the final DMSO concentration was 2 percent. The incubation time is either 1 or 2 days at 36° C. All strains tested underwent aerobic respiration, except for ATCC BAA-1805 and ATCC 29399. Following incubation, the test plates were visually examined and wells were scored for growth or complete growth inhibition to define the minimum inhibitory concentration. Each test substance was evaluated in duplicate and the results below are the duplicate test values. Vehicle-control and an active reference agent were used as blank and positive controls, respectively.

The subject of assay [2] is Propionibacterium acnes ATCC 29399. The assay is described as follows: microbe, parasite or virus in culture. It is filed as cell-based. The settings on record: ATCC 29399. As for the experimental part:
as §1

Assay [3] has as its system Enterococcus faecium ATCC BAA-2320. Kind of assay: microbe, parasite or virus in culture. It is filed as cell-based. The settings on record: ATCC BAA-2320. How it is done:
as §1

In another assay the test system is S. aureus NARSA VRS11b. The assay is described as follows: microbe, parasite or virus in culture. It counts as cell-based. As for the experimental part: as §1, with “of 11” for “of 10”, “test concentrations.” for “test concentrations (final concentrations: 100, 50, 25, 12.5, 6.25, 3.125, 1.56, 0.78, 0.39, 0.2 μM).”, “was 2%.” for “was 2 percent.”, “is” for “is either”, “1 day” for “1 or 2 days”, “aerobic respiration.” for “aerobic respiration, except for ATCC BAA-1805 and ATCC 29399.”

The next assay deals with S. aureus ECL 2963646. The assay is described as follows: microbe, parasite or virus in culture. It is filed as cell-based. As for the experimental part:
as §1, with “of 11” for “of 10”, “test concentrations.” for “test concentrations (final concentrations: 100, 50, 25, 12.5, 6.25, 3.125, 1.56, 0.78, 0.39, 0.2 μM).”, “was 2%.” for “was 2 percent.”, “is” for “is either”, “1 day” for “1 or 2 days”, “aerobic respiration.” for “aerobic respiration, except for ATCC BAA-1805 and ATCC 29399.”

The test system of the next assay is S. aureus NARSA VRS1. Kind of assay: microbe, parasite or virus in culture. It counts as cell-based. As for the experimental part:
as §1, with “of 11” for “of 10”, “test concentrations.” for “test concentrations (final concentrations: 100, 50, 25, 12.5, 6.25, 3.125, 1.56, 0.78, 0.39, 0.2 μM).”, “was 2%.” for “was 2 percent.”, “is” for “is either”, “1 day” for “1 or 2 days”, “aerobic respiration.” for “aerobic respiration, except for ATCC BAA-1805 and ATCC 29399.”

A further assay relates to S. aureus NARSA VRS2. Kind of assay: microbe, parasite or virus in culture. It counts as cell-based. As for the experimental part:
as §1, with “of 11” for “of 10”, “test concentrations.” for “test concentrations (final concentrations: 100, 50, 25, 12.5, 6.25, 3.125, 1.56, 0.78, 0.39, 0.2 μM).”, “was 2%.” for “was 2 percent.”, “is” for “is either”, “1 day” for “1 or 2 days”, “aerobic respiration.” for “aerobic respiration, except for ATCC BAA-1805 and ATCC 29399.”

The test system of another assay is S. aureus NARSA VRS3a. The assay is described as follows: microbe, parasite or virus in culture. It counts as cell-based. As for the experimental part:
as §1, with “of 11” for “of 10”, “test concentrations.” for “test concentrations (final concentrations: 100, 50, 25, 12.5, 6.25, 3.125, 1.56, 0.78, 0.39, 0.2 μM).”, “was 2%.” for “was 2 percent.”, “is” for “is either”, “1 day” for “1 or 2 days”, “aerobic respiration.” for “aerobic respiration, except for ATCC BAA-1805 and ATCC 29399.”

The test system of assay [4] is Mupirocin-resistant MRSA (ATCC-BAA-1556). Kind of assay: Time-kill assay at 4xMIC (FIG. 1). It is filed as cell-based, Staphylococcus aureus. The settings on record: 4×MIC.
In assay [5] the test system is S. aureus (ATCC BAA-1556). The assay is described as follows: microbe, parasite or virus in culture. As for the experimental part:
S. aureus (BAA-1556) was from ATCC. Mupirocin (Cat # M2955) was purchased from TCI chemicals (India) Pvt. […] Ltd, India, Cation adjusted Mueller Hinton broth (CAMHB) and Mueller Hinton Agar (MHA) (Cat # M1657) were from HiMedia Laboratories Pvt. Ltd, India.
The MIC assay was done based on CLSI guidelines in a microtitre plate format (1, 2). Preparation and dilution of Test Item (TI) stock solutions: A 1280 μg/ml stock of Compound 34 was prepared by dissolving 1.28 mg in 1.0 ml of sterile water to obtain the Master Stock (MS) solution. The MS solution was diluted 2-fold to obtain a series of Working Stock (WS) solutions (Table 7). The final concentration of solvent in the assay was 2.5% and the assay volume was […].
Preparing the inoculum: One day before initiation of experiment, an isolated colony of S. aureus (ATCC BAA-1556) was inoculated into sterile CAMHB and incubated at 37° C. to exponential phase. After incubation, the turbidity was adjusted to that of a 0.5 McFarland Standard (approximately equivalent to 1.0×10^8 CFU/ml) and diluted to ˜1.0×10^6 CFU/ml.
MIC Assay: The MIC assay was performed in a 96 well microtitre plate in a total assay volume of 100 μl (Table 7). Each well containing different concentrations of test compound (concentration range between 0.015625 and 16.0 μg/ml) was inoculated with 50 μl of bacterial suspension (prepared from the inoculum grown overnight and adjusted approximately to 5.0×10^5 CFU/ml) along with culture control (CC, culture in broth), broth control (BC, broth only), and vehicle control (VC, 2.5% solvent in broth plus culture). The plate was incubated at 37° C. for 24 hr and turbidity was measured spectrophotometrically (Absorbance microplate reader, BioTek® India, ELx800™) at 600 nm and visually. The experiment was done in duplicates. The inoculum was also plated for enumeration of bacteria. The MIC was defined as the lowest concentration of test compound that prevented bacterial growth (lack of turbidity by OD at 600 nm and visual inspection relative to no growth control).

The subject of assay [6] is Mupirocin-resistant MRSA (ATCC-BAA-1556). The assay is described as follows: Bactericidal/static determination assay at 4xMIC (FIG. 2). It is filed as cell-based, Staphylococcus aureus. The settings on record: 4×MIC.

In brackets after ≈: the same amount, converted by molar mass. Like-named read-outs stand apart in the source and are kept apart here. Square brackets hold non-standard residues; d marks the D form. Peptide text beside a SMILES is read from it. dBip(4'-Cl) = N[C@H](Cc1ccc(-c2ccc(Cl)cc2)cc1)C(=O)O

Regarding `N=C(N)NCCC[C@@H](NC(=O)[C@@H](Cc1ccc(-c2ccc(Cl)cc2)cc1)NC(=O)[C@@H](CCCNC(=N)N)NC(=O)[C@H](N)Cc1ccc(-c2ccc(Cl)cc2)cc1)C(N)=O` [Compound 34] (H-[dBip(4'-Cl)][dR][dBip(4'-Cl)][dR]-NH2), the MIC in assay [1] worked out at 3.13 µM (≈ 2.64 µg/mL); in assay [2], 1.56 µM (≈ 1.32 µg/mL); in assay [3] it was 1.56 µM (≈ 1.32 µg/mL); in the assay with S. aureus NARSA VRS11b (NARSA VRS11b, read-out: MIC) it was 1.18 µM; against S. aureus NARSA VRS11b (S. aureus NARSA VRS11b, CAMHB II), 1.0 µg/mL; with S. aureus ECL 2963646 (ECL 2963646, read-out: MIC), 2.37 µM. Moreover, the MIC was 2.0 µg/mL against S. aureus ECL 2963646 (S. aureus ECL 2963646, CAMHB II); 2.37 µM in the assay on S. aureus NARSA VRS1 (NARSA VRS1, read-out: MIC); 2.0 µg/mL in the assay with S. aureus NARSA VRS1 (S. aureus NARSA VRS1, CAMHB II); 2.37 µM with S. aureus NARSA VRS2 (NARSA VRS2, read-out: MIC); 2.0 µg/mL with S. aureus NARSA VRS2 (S. aureus NARSA VRS2, CAMHB II); 2.37 µM in the assay on S. aureus NARSA VRS3a (NARSA VRS3a, read-out: MIC). Moreover, the MIC against S. aureus NARSA VRS3a (S. aureus NARSA VRS3a, CAMHB II) came out at 2.0 µg/mL. Further, the “time-kill: rate of killing compared to Linezolid, Retapamulin and Vancomycin” value in assay [4] was “more rapidly as compared to Linezolid, Retapamulin and Vancomycin”. Besides, the “Mean MIC” value in assay [5] (ATCC BAA-1556, 24 h) was 2.37 µM; in assay [5] (S. aureus (ATCC BAA-1556), CAMHB, 37° C., 24 hr), 2.00 µg/mL. For the same molecule, the “bactericidal activity compared to Linezolid, Retapamulin and Vancomycin” value in assay [6] is “higher bactericidal activity than Linezolid, Retapamulin and Vancomycin”.
